Reference: patent US20070088033A1, “Diaryl Substituted Pyridinones” (priority 2002, published 2007)
Several values for one entry are separate records, joined by “and”; a condition that tells them apart may be missing. Equal entries are not always repeated.

The molecules below were run against T1, human p38 kinase alpha (Homo sapiens, UniProt Q16539) (assay: p38 kinase in vitro assay). Conditions: Table I; average of n trials, n=1 if not reported; read-out: p38 Alpha IC50.
T1 construct: The coding region of the human p38 cDNA was obtained by PCR-amplification from RNA isolated from the human monocyte cell line THP.1; GST (N); made in house; host or cells: E. coli DH10B
T1 sequence (Q16539 whole entry): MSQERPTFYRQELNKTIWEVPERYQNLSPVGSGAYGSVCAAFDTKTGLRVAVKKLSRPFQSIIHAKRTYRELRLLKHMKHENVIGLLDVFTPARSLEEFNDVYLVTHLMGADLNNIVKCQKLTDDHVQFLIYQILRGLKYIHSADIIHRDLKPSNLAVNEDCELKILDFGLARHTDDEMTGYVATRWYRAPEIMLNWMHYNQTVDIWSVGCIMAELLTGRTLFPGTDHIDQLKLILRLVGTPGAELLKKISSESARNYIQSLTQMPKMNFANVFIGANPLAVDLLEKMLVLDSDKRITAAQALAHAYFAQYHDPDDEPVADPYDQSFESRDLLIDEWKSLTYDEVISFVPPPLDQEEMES
Format: biochemical
Protocol: The ability of compounds to inhibit human p38 kinase alpha was evaluated using two in vitro assay methods. In the first method, activated human p38 kinase alpha phosphorylates a biotinylated substrate, PHAS-I (phosphorylated heat and acid stable protein-insulin inducible), in the presence of gamma ^32p-ATP (^32P-ATP). PHAS-I was biotinylated prior to the assay and provides a means of capturing the substrate, which is phosphorylated during the assay. p38 Kinase was activated by MKK6. Compounds were tested in 10 fold serial dilutions over the range of 100 μM to 0,001 μM using 1% DMSO. Each concentration of inhibitor was tested in triplicate.
All reactions were carried out in 96 well polypropylene plates. Each reaction well contained 25 mM HEPES pH 7.5, 10 mM magnesium acetate and 50 μM unlabeled ATP. […] Activated human p38 kinase alpha was used at 1 μg per 50 μl reaction volume representing a final concentration of 0.3 μM. Gamma ^32P-ATP was used to follow the phosphorylation of PHAS-I. ^32P-ATP has a specific activity of 3000 Ci/mmol and was used at 1.2 μCi per 50 μl reaction volume. The reaction proceeded either for one hour or overnight at 30° C.
Following incubation, 20 μl of reaction mixture was transferred to a high capacity streptavidin coated filter plate (SAM-streptavidin-matrix, Promega) prewetted with phosphate buffered saline, The transferred reaction mix was allowed to contact the streptavidin membrane of the Promega plate for 1-2 minutes. […] Filter plates were air-dried and 20 μl of scintillant was added. The plates were sealed and counted.
A second assay format was also employed that is based on p38 kinase alpha induced phosphorylation of EGFRP (epidermal growth factor receptor peptide, a 21 mer) in the presence ^33P-ATP. Compounds were tested in 10 fold serial dilutions over the range of 100 μM to 0.001 μM in 1% DMSO. Each concentration of inhibitor was tested in triplicate. Compounds were evaluated in 50 μl reaction volumes in the presence of 25 mM Hepes pH 7.5, 10 mM magnesium acetate, 4% glycerol, 0.4% bovine serum albumin, 0.4 mM DTT, 50 μM unlabeled ATP, 25 μg EGFRP (200 μM), and 0.05 μCi ^33p-ATP. Reactions were initiated by addition of 0.09 μg of activated, purified human GST-p38 kinase alpha. Activation was carried out using GST-MKK6 (5:1,p38:MKK6) for one hour at 30° C. in the presence of 50 μM ATP. Following incubation for 60 minutes at room temperature, the reaction was stopped by addition of 150 μl of AG 1×8 resin in 900 mM sodium formate buffer, pH 3.0 (1 volume resin to 2 volumes buffer). The mixture was mixed three times with pipetting and the resin was allowed to settle. A total of 50 μl of clarified solution head volume was transferred from the reaction wells to Microlite-2 plates. 150 μl of Microscint 40 was then added to each well of the Microlite plate, and the plate was sealed, mixed, and counted.

Row | SMILES | IC50 [nM]
1 | O=c1c(Br)c(OCc2ccc(F)cc2)ccn1Cc1ccc(F)cc1 [B] | 403
2 | Cc1cccc(C)c1-n1c(C)cc(OCc2ccc(F)cc2F)c(Br)c1=O [C] | 64.6
3 | Cc1cc(OCc2ccccc2)c(Br)c(=O)n1-c1c(Cl)cccc1Cl [DD] | 554
4 | O=c1c(Br)c(OCc2ccc(F)cc2F)ccn1Cc1cccc(F)c1 [E] | 129
5 | COc1cccc(Cn2ccc(OCc3ccc(F)cc3F)c(Br)c2=O)c1 [Example S] | 498
6 | Cc1cc(OCc2ccc(F)cc2F)c(Br)c(=O)n1Cc1cccnc1 [F] | 132
7 | N#Cc1ccc(Cn2ccc(OCc3ccc(F)cc3)c(Br)c2=O)cc1 [GG] | 785
8 | Cc1cc(OCc2ccc(F)cc2F)c(Br)c(=O)n1-c1c(Cl)cccc1Cl [G] | 179
9 | O=c1c(I)c(OCc2ccc(F)cc2)ccn1Cc1cccc(F)c1 [HH] | 746
10 | Cc1cccc(COc2ccn(Cc3cccc(F)c3)c(=O)c2Br)c1 [H] | 260
11 | Cc1cc(OCc2ccc(F)cc2F)c(Br)c(=O)n1Cc1ccncc1 [I] | 210
12 | O=c1c(Br)c(OCc2ccc(F)cc2F)ccn1Cc1ccc(F)cc1F [JJ] | 850

Second part, the molecule after the results:

Row | IC50 [nM] | SMILES
13 | 691 | O=c1c(Br)c(OCc2cccc(Cl)c2)ccn1Cc1cccc(F)c1 [AA]
14 | 632 | O=c1c(Br)c(OCc2ccc(F)cc2)ccn1Cc1cccc(F)c1 [BB]
15 | 536 | N#Cc1ccc(Cn2ccc(OCc3ccccc3)c(Br)c2=O)cc1 [CC]
16 | 170 | O=c1c(Br)c(OCc2ccccc2)ccn1Cc1ccc(F)cc1 [D]
17 | 572 | O=c1c(Br)c(OCc2ccc(F)cc2)ccn1Cc1ccncc1 [EE]
18 | 581 | O=c1c(Br)c(OCc2ccccc2)ccn1Cc1ccc(Br)cc1 [FF]
19 | 873 | O=c1c(Br)c(OCc2ccc(F)cc2)ccn1Cc1cccnc1 [II]
20 | 700 | O=c1c(Br)c(OCc2ccccc2)ccn1Cc1cccc(F)c1 [J]

Same assay, conditions: Table II; several values in a cell = repeat determinations; read-out: p38A

Row | SMILES | IC50
21 | O=c1c(Br)c(SCc2ccccc2)ccn1Cc1ccccc1 [BBBB] | 3600 nM
22 | O=c1c(Br)c(OCc2ccccc2C(F)(F)F)ccn1Cc1ccccc1 [CCCC] | 77600 nM
23 | Cc1cc(OCc2cccc(Cl)c2)c(Br)c(=O)n1Cc1ccccc1 [CCC] | 1600 nM
24 | O=c1cc(OCc2ccccc2)ccn1Cc1ccccc1 [EEEE] | 26400 nM and 59200 nM and 49000 nM
25 | Cn1ccc(OCc2ccccc2)c(Br)c1=O [EEE] | 11500 nM
26 | O=c1cc(OCc2ccccc2)ccn1Cc1ccccc1F [FFFF] | 33800 nM
27 | Cc1c(Br)c(OCc2ccccc2)c(Br)c(=O)n1Cc1ccccc1 [FFF] | 41600 nM
28 | O=c1c(Br)c(OCc2ccccc2)ccn1CC1CCNCC1 [III] | 90900 nM
29 | Cc1c(OCc2ccccc2)ccn(Cc2ccccc2)c1=O [JJJ] | 7990 nM and 3460 nM

More lines, now with the values ahead:

Row | IC50 | SMILES
30 | 1990 nM | CCn1ccc(OCc2ccccc2)c(Br)c1=O [AAA]
31 | 2510 nM | O=c1c(Br)c(OCc2ccccc2)ccn1Cc1ccc(OC(F)(F)F)cc1 [DDDD]
32 | 6630 nM | O=c1c(Br)c(OCc2ccc(Cl)cc2)ccn1CCc1ccccc1 [DDD]
33 | 31900 nM | O=c1cc(OCc2ccccc2)ccn1Cc1ccc(Cl)cc1 [GGGG]
34 | 13200 nM | Cn1ccc(OCc2ccccc2)c(Br)c1=O [GGG]
35 | 18000 nM | O=c1c(Br)c(OCc2ccc(F)cc2)ccn1CCCc1ccccc1 [HHH]

Same assay, conditions: Table III; n = number of times assayed, n=1 if not reported; read-out: p38 Alpha IC50

Row | SMILES | IC50 [nM]
36 | Cc1cccc(C)c1-n1ccc(OCc2ccc(F)cc2)c(Br)c1=O [BBBBB] | 455
37 | O=c1c(Br)c(OCc2ccccc2CO)ccn1Cc1cccc(F)c1 [CCCCC] | 663
38 | Cc1cc(OCc2c(F)cccc2F)c(Br)c(=O)n1Cc1ccncc1 [EEEEE] | 684
39 | O=c1c(Cl)c(OCc2ccc(F)cc2)ccn1Cc1ccc(F)cc1 [FFFFF] | 1080
40 | COc1ccc(Cn2ccc(OCc3ccc(F)cc3)c(Br)c2=O)cc1 [GGGGG] | 1040
41 | O=c1c(Br)c(NCc2ccccc2)ccn1Cc1cccc(F)c1 [HHHHH] | 1180
42 | O=c1c(Br)c(OCc2ccc(F)cc2)ccn1CC1CC1 [JJJJJ] | 1550

Further lines, results first:

Row | IC50 [nM] | SMILES
43 | 691 | O=c1c(Br)c(OCc2cccc(Cl)c2)ccn1Cc1cccc(F)c1 [DDDDD]
44 | 1140 | O=c1c(Br)c(OCc2ccc(F)cc2)ccn1Cc1cccc(Cl)c1 [IIIII]
